Activity calls are given as the source filed them. No cut-off for these calls is given here.
Tests used:
[1] = test system: NCI-H358; assay: Induction of apoptosis in human NCI-H358 cells assessed as increase in cleaved PARP level upto 5 uM incubated for 24 hrs by Western blot analysis; type: functional, cell-based
[2] = Toxicity in BALB/c-nu/nu mouse xenografted with human NCI-H358 cells assessed as histological change in spleen at 10 to 30 mg/kg, po qd treated for 20 days by H and E staining based analysis; type: organism-based; conditions: in vivo, 480 h, dose 10-30 mg/kg, time 20 day
[3] = test system: GTPase KRas (Homo sapiens), P01116 [G12C]; assay: Inhibition of KRAS G12C mutant RBD in human NCI-H358 cells incubated for 24 hrs in presence of GTP by pull-down assay; type: cell-based; conditions: dose <= 1.0 µM
[4] = test system: NCI-H358; assay: Antiproliferative activity against human NCI-H358 cells harboring KRAS G12C mutant assessed as inhibition of cell proliferation incubated for 3 days by CCK8 assay; type: functional, cell-based; conditions: NCI-H358, 72 h
[5] = test system: NCI-H358; assay: Induction of apoptosis in human NCI-H358 cells assessed as viable cells at 1 uM incubated for 24 hrs by Annexin V-FITC/PI staining based flow cytometry (reference value: 91.4 %); type: functional; conditions: read-out: Activity
[6] = test system: GTPase KRas (Homo sapiens), P01116 [G12C]; assay: Inhibition of KRAS G12C mutant in human NCI-H358 cells assessed as decrease in AKT phosphorylation incubated for 2 to 72 hrs by Western blot analysis; type: cell-based; conditions: time 2-72 hrs
[7] = test system: NCI-H358; assay: Induction of apoptosis in human NCI-H358 cells assessed as increase in cleaved caspase-7 level upto 5 uM incubated for 24 hrs by Western blot analysis; type: functional, cell-based
[8] = test system: NCI-H358; assay: In vivo inhibition of KRAS G12C mutant in human NCI-H358 cells xenografted in BALB/c-nu/nu mouse assessed as decrease in AKT phosphorylation at 10 to 30 mg/kg, po qd treated for 20 days by Western blot analysis; type: functional, organism-based; conditions: dose 10-30 mg/kg, time 20.0 day
[9] = test system: NCI-H358; assay: Induction of apoptosis in human NCI-H358 cells assessed as late apoptotic cells at 0.3 uM incubated for 24 hrs by Annexin V-FITC/PI staining based flow cytometry (reference value: 1.32 %); type: functional
[10] = test system: NCI-H358; assay: Induction of apoptosis in human NCI-H358 cells assessed as necrotic cells at 1 uM incubated for 24 hrs by Annexin V-FITC/PI staining based flow cytometry (reference value: 1.88 %); type: functional
[11] = test system: NCI-H358; assay: Induction of apoptosis in human NCI-H358 cells assessed as late apoptotic cells at 0.5 uM incubated for 24 hrs by Annexin V-FITC/PI staining based flow cytometry (reference value: 1.32 %); type: functional
[12] = test system: NCI-H358; assay: Induction of apoptosis in human NCI-H358 cells assessed as necrotic cells at 0.5 uM incubated for 24 hrs by Annexin V-FITC/PI staining based flow cytometry (reference value: 1.88 %); type: functional
[13] = test system: NCI-H358; assay: Induction of apoptosis in human NCI-H358 cells assessed as early apoptotic cells at 0.3 uM incubated for 24 hrs by Annexin V-FITC/PI staining based flow cytometry (reference value: 5.4 %); type: functional
[14] = Toxicity in BALB/c-nu/nu mouse xenografted with human NCI-H358 cells assessed as histological change in kidney at 10 to 30 mg/kg, po qd treated for 20 days by H and E staining based analysis; type: organism-based; conditions: in vivo, 480 h, dose 10-30 mg/kg, time 20 day
[15] = test system: NCI-H358; assay: Induction of apoptosis in human NCI-H358 cells assessed as necrotic cells at 0.1 uM incubated for 24 hrs by Annexin V-FITC/PI staining based flow cytometry (reference value: 1.88 %); type: functional
[16] = test system: NCI-H358; assay: Antiproliferative activity against human NCI-H358 cells harboring siKRAS assessed as inhibition of cell proliferation; type: functional, cell-based
[17] = Half life in ICR mouse at 3 mg/kg, iv measured for 24 hrs by LC-MS/MS analysis; type: ADME, organism-based; conditions: in vivo
[18] = test system: GTPase KRas (Homo sapiens), P01116 [G12C]; assay: Inhibition of KRAS G12C mutant in human NCI-H358 cells assessed as decrease in AKT phosphorylation upto 5 uM by Western blot analysis; type: cell-based; conditions: time 2-72 hrs, TDE = time-dependent effect
[19] = Oral bioavailability in ICR mouse at 30 mg/kg measured for 24 hrs by LC-MS/MS analysis; type: ADME, organism-based; conditions: in vivo
[20] = test system: A549; assay: Antiproliferative activity against human A549 cells harboring KRAS G12S mutant assessed as inhibition of cell proliferation incubated for 3 days by CCK8 assay; type: functional, cell-based; conditions: A549, 72 h
[21] = Toxicity in BALB/c-nu/nu mouse xenografted with human NCI-H358 cells assessed as histological change in heart at 10 to 30 mg/kg, po qd treated for 20 days by H and E staining based analysis; type: organism-based; conditions: in vivo, 480 h, dose 10-30 mg/kg, time 20 day
[22] = test system: NCI-H358; assay: Induction of apoptosis in human NCI-H358 cells assessed as viable cells at 0.1 uM incubated for 24 hrs by Annexin V-FITC/PI staining based flow cytometry (reference value: 91.4 %); type: functional; conditions: Homo sapiens, NCI-H358, read-out: Activity
[23] = test system: NCI-H358; assay: Antitumor activity in human NCI-H358 cells xenografted in BALB/c-nu/nu mouse assessed as tumor growth inhibition at 30 mg/kg, po qd treated for 20 days relative to control; type: functional; conditions: NCI-H358, 480 h, time 20 day, read-out: TGI
[24] = Tmax in ICR mouse at 30 mg/kg, po measured for 24 hrs by LC-MS/MS analysis; type: ADME, organism-based; conditions: in vivo
[25] = test system: GTPase KRas (Homo sapiens), P01116 [G12C]; assay: Inhibition of KRAS G12C mutant in human NCI-H358 cells assessed as decrease in ERK phosphorylation incubated for 2 to 72 hrs by Western blot analysis; type: cell-based; conditions: time 2-72 hrs
[26] = Volume of distribution at steady state in ICR mouse at 3 mg/kg, iv measured for 24 hrs by LC-MS/MS analysis; type: ADME, organism-based; conditions: in vivo, read-out: Vdss
[27] = test system: NCI-H358; assay: Induction of apoptosis in human NCI-H358 cells assessed as viable cells at 0.5 uM incubated for 24 hrs by Annexin V-FITC/PI staining based flow cytometry (reference value: 91.4 %); type: functional; conditions: read-out: Activity
[28] = test system: NCI-H1975; assay: Antiproliferative activity against human NCI-H1975 cells harboring wild-type KRAS assessed as inhibition of cell proliferation incubated for 3 days by CCK8 assay; type: functional, cell-based; conditions: NCI-H1975, 72 h
[29] = test system: NCI-H358; assay: Induction of apoptosis in human NCI-H358 cells assessed as late apoptotic cells at 1 uM incubated for 24 hrs by Annexin V-FITC/PI staining based flow cytometry (reference value: 1.32 %); type: functional

Chain of GTPase KRas (Homo sapiens), P01116 [G12C] (P01116 whole entry G12C): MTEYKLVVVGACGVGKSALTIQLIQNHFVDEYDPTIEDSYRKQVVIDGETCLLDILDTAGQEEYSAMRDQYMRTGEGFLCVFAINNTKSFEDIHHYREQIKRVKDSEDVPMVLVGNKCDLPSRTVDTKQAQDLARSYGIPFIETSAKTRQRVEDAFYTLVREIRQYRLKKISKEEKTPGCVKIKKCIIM

inhibition [3]: Dose-Dependent Effect
IC50 [4]: 0.16 µM
inhibition [6]: Dose-Dependent Effect
half-life [17]: 55.8 min
inhibition [18]: Tde
bioavailability [19]: 10.4%
IC50 [20]: 29.9 µM
Tmax [24]: 4.98 min
inhibition [25]: Dose-Dependent Effect
Vd [26]: 4.98 L/kg
IC50 [28]: 7.91 µM
Compound: C=CC(=O)N1CCN(c2nc(OC[C@@]34CCCN3C[C@H](F)C4)nc3c2cc(-c2cccc4cccc(C)c24)n3C)C[C@@H]1CC#N
Activity [1]: Active
Activity [2]: Non-Toxic
viability at 1 µM [5]: 71.2%
Activity [7]: Active
inhibition [8]: Active
Activity [9]: 3.93%
Activity [10]: 1.03%
Activity [11]: 6.26%
Activity [12]: 0.8%
Activity [13]: 11.8%
Activity [14]: Non-Toxic
Activity [15]: 1.17%
inhibition [16]: Active
Activity [21]: Non-Toxic
viability at 0.1 µM [22]: 84.6%
inhibition in vivo at 30 mg/kg [23]: 84%
viability at 0.5 µM [27]: 79%
Activity [29]: 5.34%

Reference: ChEMBL document CHEMBL5385858, “Identification of novel Pyrrolo[2,3-d]Pyrimidine-based KRAS G12C inhibitors with anticancer effects” (Eur J Med Chem, 2023)
